Laboratory results as given in patent US20130344026A1, “Dimeric Smac Mimetics” (priority 2009, published 2013).
Like-named read-outs stand apart in the source and are kept apart here.

System: PANC-1 cells
Experiment: cell viability assay in PANC-1 cells (compound alone, + 100 ng/ml TNFa, + 300 ng/ml TRAIL)
Format: cell-based
[1] = Homo sapiens, PANC-1, compound alone, Tables 6-10, read-out: IC50 (μM) in cell viability assay in PANC-1 cells: Compound alone
[2] = with 100 ng/ml TNFa, Tables 6-10, read-out: IC50 (μM) in cell viability assay in PANC-1 cells: Compound + 100 ng/ml TNFa
[3] = with 300 ng/ml TRAIL, Tables 6-10, read-out: IC50 (μM) in cell viability assay in PANC-1 cells: Compound + 300 ng/ml TRAIL
[4] = Homo sapiens, PANC-1, compound alone, Tables 15-18, read-out: IC50 (uM) in cell viability assay in PANC-1 cells: Cmpnd alone
[5] = with 100 ng/ml TNFa, Tables 15-18, read-out: IC50 (uM) in cell viability assay in PANC-1 cells: Cmpnd + 100 ng/ml TNFa
[6] = with 300 ng/ml TRAIL, Tables 15-18, read-out: IC50 (uM) in cell viability assay in PANC-1 cells: Cmpnd + 300 ng/ml TRAIL
[7] = Homo sapiens, PANC-1 cells, compound alone, read-out: IC50 (uM) in cell viability assay in PANC-1 cells, Cmpnd alone
[8] = PANC-1 cells, + 100 ng/ml TNFa, read-out: IC50 (uM) in cell viability assay in PANC-1 cells, Cmpnd + 100 ng/ml TNFa
[9] = PANC-1 cells, + 300 ng/ml TRAIL, read-out: IC50 (uM) in cell viability assay in PANC-1 cells, Cmpnd + 300 ng/ml TRAIL
[10] = compound alone, Tables 6-10, read-out: IC50 (μM) in cell viability assay in PANC-1 cells: Compound alone

SMILES | IC50 [2] | IC50 [3] | IC50 [1] | other results
CN[C@@H](C)C(=O)N[C@H](C(=O)N1CCC[C@H]1Cn1nnnc1Sc1ccccc1)[C@@H](C)OCC#Cc1cccc(C#CCO[C@@H](C)[C@@H](NC(=O)[C@@H](C)NC)C(=O)N2CCC[C@@H]2Cn2nnnc2Sc2ccccc2)c1 [Compound 116] | 0.0046 µM | 0.0059 µM | > 1 µM | 
CN[C@@H](C)C(=O)N[C@H](C(=O)N1C[C@@H](NC(=O)c2cccc(C(=O)N[C@H]3C[C@@H](C(=O)N[C@@H]4CCCc5cc(O)ccc54)N(C(=O)[C@@H](NC(=O)[C@H](C)NC)C(C)(C)C)C3)c2)C[C@H]1C(=O)N[C@@H]1CCCc2cc(O)ccc21)C(C)(C)C (single isomer, unassigned) [Compound 61] | 0.324 µM | 0.439 µM | > 1 µM | 
CN[C@@H](C)C(=O)N[C@@H](CCCCCC[C@H](NC(=O)[C@H](C)NC)C(=O)N[C@H]1c2ccccc2C[C@@H]1NC(=O)c1c(OC)cccc1OC)C(=O)N[C@H]1c2ccccc2C[C@@H]1NC(=O)c1c(OC)cccc1OC [Compound 59] | > 1 µM | > 1 µM | > 1 µM | 
CN[C@@H](C)C(=O)NC(C(=O)N1CCC[C@H]1C(=O)NC1CCCc2ccccc21)c1ccc(CCc2ccc([C@H](NC(=O)[C@H](C)NC)C(=O)N3CCC[C@H]3C(=O)NC3CCCc4ccccc43)cc2)cc1 (stereo partly drawn) [Compound P2-35] |  |  |  | IC50 [4]: > 1 µM; IC50 [5]: 0.007 µM; IC50 [6]: 0.007 µM
CN[C@@H](C)C(=O)N[C@H](C(=O)N1C[C@@H](NC(=O)c2cccc(C(=O)N[C@H]3C[C@@H](C(=O)NC4CCCc5c(OC)cccc54)N(C(=O)[C@@H](NC(=O)[C@H](C)NC)C(C)(C)C)C3)c2)C[C@H]1C(=O)NC1CCCc2c(OC)cccc21)C(C)(C)C (single isomer, unassigned) [Compound 46] | 0.048 µM | 0.014 µM | > 1 µM | 
CN[C@@H](CO)C(=O)N[C@H](C(=O)N1C[C@@H](NC(=O)c2cccc(C(=O)N[C@H]3C[C@@H](C(=O)N[C@H](C)c4ccccc4)N(C(=O)[C@@H](NC(=O)[C@H](CO)NC)C(C)(C)C)C3)c2)C[C@H]1C(=O)N[C@H](C)c1ccccc1)C(C)(C)C [Compound P3-90] |  |  |  | IC50 [7]: > 1 µM; IC50 [8]: 0.007 µM; IC50 [9]: 0.021 µM
CN[C@@H](C)C(=O)N[C@@H](CCNC(=O)NCC[C@H](NC(=O)[C@H](C)NC)C(=O)N1CCC[C@H]1C(=O)N[C@@H]1CCCc2ccccc21)C(=O)N1CCC[C@H]1C(=O)N[C@@H]1CCCc2ccccc21 [Compound P2-39] |  |  |  | IC50 [4]: > 1 µM; IC50 [5]: 0.349 µM; IC50 [6]: 0.225 µM
CN[C@@H](C)C(=O)N[C@H](C(=O)N1CCC[C@H]1C(=O)N[C@H]1c2ccccc2C[C@@H]1OCCCCCCO[C@H]1Cc2ccccc2[C@@H]1NC(=O)[C@@H]1CCCN1C(=O)[C@@H](NC(=O)[C@H](C)NC)C(C)(C)C)C(C)(C)C [Compound 122] | 0.0015 µM | 0.0014 µM | > 1 µM | 
CN[C@@H](C)C(=O)N[C@H](C(=O)N[C@@H](CCNC(=O)c1cc(N)cc(C(=O)N[C@H]2C[C@@H](C(=O)N[C@@H]3CCCc4ccccc43)N(C(=O)[C@@H](NC(=O)[C@H](C)NC)C(C)(C)C)C2)c1)C(=O)N[C@@H]1CCCc2ccccc21)C(C)C [Compound 183] | 0.044 µM | 0.061 µM | > 1 µM | 
CN[C@@H](C)C(=O)N[C@@H](CC(=O)NCCNC(=O)C[C@H](NC(=O)[C@H](C)NC)C(=O)N1CCC[C@H]1C(=O)N[C@@H]1CCCc2ccccc21)C(=O)N1CCC[C@H]1C(=O)N[C@@H]1CCCc2ccccc21 [Compound P2-40] |  |  |  | IC50 [4]: > 1 µM; IC50 [5]: 0.19 µM; IC50 [6]: 0.25 µM
CN[C@@H](C)C(=O)N[C@H](C(=O)N1CCC[C@H]1CN1C(=O)OC[C@@H]1Cc1ccccc1)[C@@H](C)OCC#CC#CCO[C@H](C)[C@H](NC(=O)[C@H](C)NC)C(=O)N1CCC[C@H]1CN1C(=O)OC[C@@H]1Cc1ccccc1 [Compound 82] | 0.536 µM | 0.564 µM | > 1 µM | 
CN[C@@H](C)C(=O)N[C@@H](CCC(=O)Nc1cccc(C#Cc2cccc(NC(=O)CC[C@H](NC(=O)[C@H](C)NC)C(=O)N3CCC[C@H]3C(=O)N[C@@H]3CCCc4ccccc43)c2)c1)C(=O)N1CCC[C@H]1C(=O)N[C@@H]1CCCc2ccccc21 [Compound P2-49] |  |  |  | IC50 [4]: > 1 µM; IC50 [5]: 0.033 µM; IC50 [6]: 0.033 µM
CN[C@@H](C)C(=O)N[C@H](C(=O)N1C[C@@H](NC(=O)CCCCCCCCC(=O)N[C@H]2C[C@@H](C(=O)N[C@H](C)c3ccccc3)N(C(=O)[C@@H](NC(=O)[C@H](C)NC)C(C)(C)C)C2)C[C@H]1C(=O)N[C@H](C)c1ccccc1)C(C)(C)C [Compound P3-93] |  |  |  | IC50 [7]: > 1 µM; IC50 [8]: 0.012 µM; IC50 [9]: 0.043 µM
CN[C@@H](C)C(=O)N[C@H](C(=O)N1CCC[C@H]1CN1C(=O)OC[C@@H]1Cc1ccccc1)[C@@H](C)OCCCCCCO[C@H](C)[C@H](NC(=O)[C@H](C)NC)C(=O)N1CCC[C@H]1CN1C(=O)OC[C@@H]1Cc1ccccc1 [Compound 84] | > 1 µM | > 1 µM | > 1 µM | 
CN[C@@H](C)C(=O)N[C@H](C(=O)N1C[C@@H](NC(=O)c2cccc(C(=O)N[C@H]3C[C@@H](C(=O)NC4CCCc5cc(Br)ccc54)N(C(=O)[C@@H](NC(=O)[C@H](C)NC)C(C)(C)C)C3)c2)C[C@H]1C(=O)NC1CCCc2cc(Br)ccc21)C(C)(C)C (single isomer, unassigned) [Compound 75] | 0.018 µM | 0.013 µM | > 1 µM | 
CN[C@@H](C)C(=O)N[C@H](C(=O)N1C[C@@H](NC(=O)c2cccc(C(=O)N[C@H]3C[C@@H](C(=O)N[C@H](C)Cc4ccccc4)N(C(=O)[C@@H](NC(=O)[C@H](C)NC)C(C)(C)C)C3)c2)C[C@H]1C(=O)NC(C)Cc1ccccc1)C(C)(C)C (stereo partly drawn) [Compound 10] | 0.065 µM | 0.085 µM | > 1 µM | 
CN[C@@H](C)C(=O)N[C@@H](CCCCNC(=O)c1cccc(C(=O)NCCCC[C@H](NC(=O)[C@H](C)NC)C(=O)N2CCC[C@H]2Cn2nnnc2Sc2ccccc2)c1)C(=O)N1CCC[C@H]1Cn1nnnc1Sc1ccccc1 [Compound P2-48] |  |  |  | IC50 [4]: > 1 µM; IC50 [5]: 0.263 µM; IC50 [6]: 0.398 µM
CN[C@@H](C)C(=O)N[C@H](C(=O)N[C@@H](CCNC(=O)c1ccc2cc(C(=O)N[C@H]3C[C@@H](C(=O)N[C@@H]4CCCc5ccccc54)N(C(=O)[C@@H](NC(=O)[C@H](C)NC)C(C)(C)C)C3)ccc2c1)C(=O)N[C@H](C)C(C)C)C(C)C [Compound 185] | 0.008 µM | 0.004 µM | > 1 µM | 
CN[C@@H](C)C(=O)N[C@H](C(=O)N1C[C@@H](NC(=O)c2cccc(C(=O)N[C@H]3C[C@@H](C(=O)NC4CCCc5cccc(F)c54)N(C(=O)[C@@H](NC(=O)[C@H](C)NC)C(C)(C)C)C3)c2)C[C@H]1C(=O)NC1CCCc2cccc(F)c21)C(C)(C)C (single isomer, unassigned) [Compound 71] | 0.005 µM | 0.0091 µM |  | IC50 [10]: > 1 µM
CN[C@@H](C)C(=O)N[C@H](C(=O)N1C[C@@H](NC(=O)c2cccc(C(=O)N[C@H]3C[C@@H](C(=O)N[C@H](C)c4ccccn4)N(C(=O)[C@@H](NC(=O)[C@H](C)NC)C(C)(C)C)C3)c2)C[C@H]1C(=O)N[C@H](C)c1ccccn1)C(C)(C)C [Compound 26] | > 1 µM | > 1 µM |  | IC50 [10]: > 1 µM

Further lines, with some results ahead:

IC50 [2] | IC50 [3] | SMILES | IC50 [1] | other results
0.008 µM | 0.014 µM | CN[C@@H](C)C(=O)N[C@H](C(=O)N1C[C@@H](NC(=O)c2cccc(C(=O)N[C@H]3C[C@@H](C(=O)N[C@@H]4CCCc5cc(OC)ccc54)N(C(=O)[C@@H](NC(=O)[C@H](C)NC)C(C)(C)C)C3)c2)C[C@H]1C(=O)N[C@@H]1CCCc2cc(OC)ccc21)C(C)(C)C [Compound 45] | > 1 µM | 
0.064 µM | 0.069 µM | CN[C@@H](C)C(=O)N[C@@H](CCCCCC[C@H](NC(=O)[C@H](C)NC)C(=O)N1CC[C@H]1C(=O)N[C@@H]1CCCc2ccccc21)C(=O)N1CC[C@H]1C(=O)N[C@@H]1CCCc2ccccc21 [Compound 102] | > 1 µM | 
0.104 µM | 0.081 µM | CCC1(NC(=O)[C@@H]2C[C@H](NC(=O)c3cccc(C(=O)N[C@H]4C[C@@H](C(=O)NC5(CC)CCCc6ccccc65)N(C(=O)[C@@H](NC(=O)[C@H](C)NC)C(C)(C)C)C4)c3)CN2C(=O)[C@@H](NC(=O)[C@H](C)NC)C(C)(C)C)CCCc2ccccc21 (stereo partly drawn) [Compound 51] |  | IC50 [10]: > 1 µM
0.659 µM | > 1 µM | CNC(C)C(=O)Nc1nc(-c2ccccc2)c(C(=O)NC[C@@H](NC(=O)[C@@H]2CCCN2C(=O)[C@@H](NC(=O)[C@H](C)NC)C(C)(C)C)c2ccccc2)s1 (stereo partly drawn) [Compound 192] | > 1 µM | 
0.04 µM | 0.059 µM | CN[C@@H](C)C(=O)N[C@H](C(=O)N1C[C@@H](n2cc(CCC(=O)N[C@@H]3CC(C(=O)N[C@H](C)c4ccccc4)N(C(=O)C(NC(=O)[C@H](CO)NC)C(C)(C)C)C3)nn2)C[C@H]1C(=O)N[C@@H]1CCCc2ccccc21)C(C)(C)C (stereo partly drawn) [Compound 205] | > 1 µM | 
0.56 µM | 0.55 µM | CN[C@@H](C)C(=O)N[C@@H]1CCN(C(=O)c2ccc(C(=O)N[C@H]3C[C@@H](C(=O)N[C@@H]4CCCc5ccccc54)N(C(=O)[C@@H](NC(=O)[C@H](C)NC)C(C)(C)C)C3)cc2)C1 [Compound 186] | > 1 µM | 
